Test results published in US12479847B2 (DANA-FARBER CANCER INSTITUTE, INC., priority 2019, dated 2025).
Where two headings read alike, the source gives them in different places.

What was measured:
Experiment in all cases: KINOMEscan (ScanMAX) kinase profiling
Assay type in all cases: binding
[1] = biological target: T1, panel of 468 kinases (Homo sapiens, UniProt Q14004); conditions: CDC2L5; 1 μM; read-out: % control
T1 construct: purchased KINOMEscan (ScanMAX) service

[2] = biological target: T2, panel of 468 kinases (Homo sapiens, UniProt O15075); conditions: DCAMKL1; 1 μM; read-out: % control
T2 construct: purchased KINOMEscan (ScanMAX) service

[3] = biological target: T3, panel of 468 kinases (Homo sapiens, UniProt O00329); conditions: PIK3CD; 1 μM; read-out: % control
T3 construct: purchased KINOMEscan (ScanMAX) service
T3 sequence (O00329 1-1044): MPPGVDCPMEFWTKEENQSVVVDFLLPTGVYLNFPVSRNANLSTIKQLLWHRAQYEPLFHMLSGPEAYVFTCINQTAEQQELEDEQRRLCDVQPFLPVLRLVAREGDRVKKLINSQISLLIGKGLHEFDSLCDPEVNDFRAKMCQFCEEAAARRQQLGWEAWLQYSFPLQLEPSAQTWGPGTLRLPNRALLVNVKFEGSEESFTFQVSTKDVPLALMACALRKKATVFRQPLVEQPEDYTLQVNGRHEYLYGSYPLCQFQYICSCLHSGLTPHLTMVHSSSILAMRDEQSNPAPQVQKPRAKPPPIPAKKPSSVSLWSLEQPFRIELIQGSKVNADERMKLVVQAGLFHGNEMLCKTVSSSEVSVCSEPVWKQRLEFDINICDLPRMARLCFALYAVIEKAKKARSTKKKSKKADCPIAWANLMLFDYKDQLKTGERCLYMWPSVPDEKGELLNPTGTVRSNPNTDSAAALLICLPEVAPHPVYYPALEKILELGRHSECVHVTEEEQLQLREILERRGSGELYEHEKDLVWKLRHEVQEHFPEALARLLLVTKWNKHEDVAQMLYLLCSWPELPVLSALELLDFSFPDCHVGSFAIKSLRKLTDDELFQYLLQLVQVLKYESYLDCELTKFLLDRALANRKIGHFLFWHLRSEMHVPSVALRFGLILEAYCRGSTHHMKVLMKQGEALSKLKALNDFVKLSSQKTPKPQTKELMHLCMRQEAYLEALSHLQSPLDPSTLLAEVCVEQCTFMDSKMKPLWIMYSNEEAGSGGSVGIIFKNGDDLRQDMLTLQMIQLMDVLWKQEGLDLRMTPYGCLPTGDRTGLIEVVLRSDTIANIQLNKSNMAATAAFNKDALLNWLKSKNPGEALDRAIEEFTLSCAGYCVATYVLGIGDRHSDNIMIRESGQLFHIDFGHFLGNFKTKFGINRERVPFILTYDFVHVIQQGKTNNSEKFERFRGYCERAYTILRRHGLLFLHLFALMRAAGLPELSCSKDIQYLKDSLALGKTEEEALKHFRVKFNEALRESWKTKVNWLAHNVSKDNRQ

[4] = biological target: T4, panel of 468 kinases (Homo sapiens, UniProt P20794); conditions: MAK; 1 μM; read-out: % control
T4 construct: purchased KINOMEscan (ScanMAX) service
T4 sequence (P20794 1-623): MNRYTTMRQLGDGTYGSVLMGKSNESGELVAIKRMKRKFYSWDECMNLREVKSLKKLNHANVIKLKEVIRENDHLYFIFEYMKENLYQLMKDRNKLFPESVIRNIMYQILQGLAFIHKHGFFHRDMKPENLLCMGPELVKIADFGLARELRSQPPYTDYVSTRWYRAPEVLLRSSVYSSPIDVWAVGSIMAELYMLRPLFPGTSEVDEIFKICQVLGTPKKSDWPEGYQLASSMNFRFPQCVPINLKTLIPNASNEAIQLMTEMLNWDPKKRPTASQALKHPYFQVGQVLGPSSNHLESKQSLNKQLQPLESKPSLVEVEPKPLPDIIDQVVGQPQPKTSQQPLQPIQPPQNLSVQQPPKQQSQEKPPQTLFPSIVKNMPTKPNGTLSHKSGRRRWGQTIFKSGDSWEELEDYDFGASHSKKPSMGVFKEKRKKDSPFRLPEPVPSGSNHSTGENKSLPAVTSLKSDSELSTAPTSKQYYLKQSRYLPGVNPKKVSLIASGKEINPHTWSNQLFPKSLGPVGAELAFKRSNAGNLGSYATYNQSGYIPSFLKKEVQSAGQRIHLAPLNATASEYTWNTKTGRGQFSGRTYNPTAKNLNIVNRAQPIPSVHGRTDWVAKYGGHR

[5] = biological target: T5, panel of 468 kinases (Homo sapiens, UniProt P00519); conditions: 1 μM, read-out: % control
T5 construct: purchased KINOMEscan (ScanMAX) service

[6] = biological target: T6, panel of 468 kinases (Homo sapiens, UniProt O15111); conditions: IKK-alpha; 1 μM; read-out: % control
T6 construct: purchased KINOMEscan (ScanMAX) service
T6 sequence (O15111 1-745): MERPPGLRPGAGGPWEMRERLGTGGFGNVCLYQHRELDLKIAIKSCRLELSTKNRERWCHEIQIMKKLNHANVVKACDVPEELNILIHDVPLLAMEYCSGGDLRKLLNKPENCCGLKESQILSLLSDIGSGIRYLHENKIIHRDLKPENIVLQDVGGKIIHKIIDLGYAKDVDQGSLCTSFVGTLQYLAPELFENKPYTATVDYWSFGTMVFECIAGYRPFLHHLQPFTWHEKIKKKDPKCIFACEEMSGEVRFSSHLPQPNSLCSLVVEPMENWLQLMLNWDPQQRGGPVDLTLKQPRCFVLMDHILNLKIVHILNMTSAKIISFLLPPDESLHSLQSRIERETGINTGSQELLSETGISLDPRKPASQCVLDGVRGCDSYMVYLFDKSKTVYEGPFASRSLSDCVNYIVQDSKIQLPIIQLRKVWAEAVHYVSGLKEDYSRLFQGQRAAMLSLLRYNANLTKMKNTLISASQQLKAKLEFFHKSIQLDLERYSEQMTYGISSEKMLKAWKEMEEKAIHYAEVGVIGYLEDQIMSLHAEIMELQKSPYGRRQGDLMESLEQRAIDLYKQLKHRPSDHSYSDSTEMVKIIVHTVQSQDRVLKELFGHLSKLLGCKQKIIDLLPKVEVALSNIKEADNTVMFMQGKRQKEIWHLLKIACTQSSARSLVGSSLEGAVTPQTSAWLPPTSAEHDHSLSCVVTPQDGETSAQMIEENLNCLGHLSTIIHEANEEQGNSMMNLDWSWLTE

T5 sequence (P00519 whole entry): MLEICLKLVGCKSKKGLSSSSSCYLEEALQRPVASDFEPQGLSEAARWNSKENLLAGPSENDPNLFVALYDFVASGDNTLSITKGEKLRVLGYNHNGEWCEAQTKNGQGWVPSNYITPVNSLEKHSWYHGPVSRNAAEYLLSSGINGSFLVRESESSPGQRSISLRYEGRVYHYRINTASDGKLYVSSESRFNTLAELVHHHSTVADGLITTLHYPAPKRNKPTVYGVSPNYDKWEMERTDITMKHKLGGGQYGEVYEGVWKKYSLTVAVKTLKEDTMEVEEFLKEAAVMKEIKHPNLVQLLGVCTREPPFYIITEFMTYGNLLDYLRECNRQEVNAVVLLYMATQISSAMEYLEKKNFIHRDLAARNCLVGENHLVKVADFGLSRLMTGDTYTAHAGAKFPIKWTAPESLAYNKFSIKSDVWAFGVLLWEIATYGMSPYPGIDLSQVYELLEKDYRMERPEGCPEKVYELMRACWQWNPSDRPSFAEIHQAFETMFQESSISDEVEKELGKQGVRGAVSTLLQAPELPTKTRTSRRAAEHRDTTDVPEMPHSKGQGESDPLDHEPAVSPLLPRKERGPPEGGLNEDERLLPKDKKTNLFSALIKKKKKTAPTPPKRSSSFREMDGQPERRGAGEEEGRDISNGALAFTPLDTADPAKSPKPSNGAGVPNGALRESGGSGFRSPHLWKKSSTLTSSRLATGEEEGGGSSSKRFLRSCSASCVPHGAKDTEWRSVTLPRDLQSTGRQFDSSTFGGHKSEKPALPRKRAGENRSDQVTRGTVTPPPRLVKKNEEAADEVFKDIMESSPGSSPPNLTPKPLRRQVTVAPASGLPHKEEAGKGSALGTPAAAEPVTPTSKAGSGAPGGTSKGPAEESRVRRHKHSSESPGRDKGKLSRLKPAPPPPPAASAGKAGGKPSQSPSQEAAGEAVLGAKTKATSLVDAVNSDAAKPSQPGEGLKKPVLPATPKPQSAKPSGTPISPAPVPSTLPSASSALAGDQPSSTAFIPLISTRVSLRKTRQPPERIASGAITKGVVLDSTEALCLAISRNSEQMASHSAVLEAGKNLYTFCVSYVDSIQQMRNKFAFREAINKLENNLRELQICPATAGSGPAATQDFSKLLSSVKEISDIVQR
T2 sequence (O15075 whole entry): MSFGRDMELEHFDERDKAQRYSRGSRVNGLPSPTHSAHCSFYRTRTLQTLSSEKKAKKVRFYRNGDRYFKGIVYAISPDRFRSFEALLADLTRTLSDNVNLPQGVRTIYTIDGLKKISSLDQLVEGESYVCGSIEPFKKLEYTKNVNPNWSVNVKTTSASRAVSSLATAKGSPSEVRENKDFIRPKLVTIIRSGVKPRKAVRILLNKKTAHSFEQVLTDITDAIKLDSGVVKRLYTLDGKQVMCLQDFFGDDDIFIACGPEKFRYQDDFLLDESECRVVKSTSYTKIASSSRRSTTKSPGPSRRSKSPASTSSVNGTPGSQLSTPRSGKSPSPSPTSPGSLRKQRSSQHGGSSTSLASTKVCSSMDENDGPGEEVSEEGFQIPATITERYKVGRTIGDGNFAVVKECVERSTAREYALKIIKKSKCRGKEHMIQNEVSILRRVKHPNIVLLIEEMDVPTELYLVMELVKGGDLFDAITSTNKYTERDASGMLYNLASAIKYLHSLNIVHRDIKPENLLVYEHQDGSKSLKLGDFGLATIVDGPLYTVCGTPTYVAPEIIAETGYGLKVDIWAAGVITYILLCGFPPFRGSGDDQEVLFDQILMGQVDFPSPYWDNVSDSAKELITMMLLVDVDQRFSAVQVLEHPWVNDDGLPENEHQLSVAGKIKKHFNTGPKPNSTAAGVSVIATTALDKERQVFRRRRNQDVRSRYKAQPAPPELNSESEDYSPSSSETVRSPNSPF
T1 sequence (Q14004 whole entry): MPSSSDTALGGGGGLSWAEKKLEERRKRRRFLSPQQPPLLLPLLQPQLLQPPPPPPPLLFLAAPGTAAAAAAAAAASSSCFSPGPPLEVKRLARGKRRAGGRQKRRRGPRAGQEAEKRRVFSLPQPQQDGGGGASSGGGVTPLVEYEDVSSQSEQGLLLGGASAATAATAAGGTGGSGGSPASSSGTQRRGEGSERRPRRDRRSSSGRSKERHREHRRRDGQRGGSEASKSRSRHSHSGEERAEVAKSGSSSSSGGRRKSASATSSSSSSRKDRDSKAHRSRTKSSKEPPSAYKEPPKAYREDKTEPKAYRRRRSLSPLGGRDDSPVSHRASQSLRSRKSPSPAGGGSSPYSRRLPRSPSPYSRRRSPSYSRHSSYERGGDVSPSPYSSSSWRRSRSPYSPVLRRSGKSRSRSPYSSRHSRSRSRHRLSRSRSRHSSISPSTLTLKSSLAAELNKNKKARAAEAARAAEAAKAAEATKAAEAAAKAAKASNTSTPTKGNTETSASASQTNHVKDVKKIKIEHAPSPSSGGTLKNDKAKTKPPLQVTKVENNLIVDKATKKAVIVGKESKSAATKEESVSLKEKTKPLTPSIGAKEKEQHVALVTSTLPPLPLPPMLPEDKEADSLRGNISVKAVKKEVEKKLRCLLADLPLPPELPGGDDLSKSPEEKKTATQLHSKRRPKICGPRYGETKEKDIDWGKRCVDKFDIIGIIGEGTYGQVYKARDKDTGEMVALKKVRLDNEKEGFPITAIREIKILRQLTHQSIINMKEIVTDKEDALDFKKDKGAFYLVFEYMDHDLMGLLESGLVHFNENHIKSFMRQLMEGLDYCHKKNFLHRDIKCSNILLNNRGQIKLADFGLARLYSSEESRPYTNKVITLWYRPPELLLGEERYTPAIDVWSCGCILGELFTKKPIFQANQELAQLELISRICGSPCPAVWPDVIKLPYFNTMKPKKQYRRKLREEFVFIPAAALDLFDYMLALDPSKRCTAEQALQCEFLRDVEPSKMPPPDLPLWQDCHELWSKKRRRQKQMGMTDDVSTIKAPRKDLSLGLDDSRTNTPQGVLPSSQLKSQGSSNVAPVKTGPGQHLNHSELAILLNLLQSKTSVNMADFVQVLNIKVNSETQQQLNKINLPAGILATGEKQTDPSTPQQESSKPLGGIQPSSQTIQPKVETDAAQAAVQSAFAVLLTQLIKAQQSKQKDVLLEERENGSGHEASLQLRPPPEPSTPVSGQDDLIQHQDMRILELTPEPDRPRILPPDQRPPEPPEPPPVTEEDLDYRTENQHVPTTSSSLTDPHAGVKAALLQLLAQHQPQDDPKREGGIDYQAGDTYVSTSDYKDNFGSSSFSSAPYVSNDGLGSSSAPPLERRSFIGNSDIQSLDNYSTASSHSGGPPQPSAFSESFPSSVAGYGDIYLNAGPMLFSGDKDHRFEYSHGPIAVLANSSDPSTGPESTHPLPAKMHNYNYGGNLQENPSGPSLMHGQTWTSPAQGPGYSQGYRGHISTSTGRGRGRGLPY

Row | Structure (SMILES) | remaining binding at 1 µM [1] [%] | remaining binding at 1 µM [2] [%] | remaining binding at 1 µM [3] [%] | remaining binding at 1 µM [4] [%] | remaining binding at 1 µM ([5]; ABL1-nonphosphorylated) [%] | remaining binding at 1 µM ([5]; ABL1-phosphorylated) [%] | remaining binding at 1 µM [6] [%]
1 | CNc1nc(Nc2ccc(C(=O)N3CCC(N4CCOCC4)CC3)c3c2OCO3)nc2[nH]cc(Cl)c12 [Compound 75, (7-((5-chloro-4-(methylamino)-7H-pyrrolo[2,3-d]pyrimidin-2-yl)amino)benzo[d][1,3]dioxol-4-yl)(4-morpholinopiperidin-1-yl)methanone] | 57 | 74 | 96 | 100 | 94 | 80 | 65
2 | CNc1nc(Nc2ccc(S(=O)(=O)N3CCC(N4CCOCC4)CC3)cc2OC)nc2[nH]cc(Cl)c12 [Compound 12, 5-chloro-N2-(2-methoxy-4-((4-morpholinopiperidin-1-yl)sulfonyl)phenyl)-N4-methyl-7H-pyrrolo[2,3-d]pyrimidine-2,4-diamine] | 54 | 94 | 96 | 100 | 80 | 72 | 76
3 | CNc1nc(Nc2ccc(P3(=O)CCN(C4CCOCC4)CC3)cc2OC)nc2[nH]cc(Cl)c12 [Compound 77, 4-(4-((5-chloro-4-(methylamino)-7H-pyrrolo[2,3-d]pyrimidin-2-yl)amino)-3-methoxyphenyl)-1-(tetrahydro-2H-pyran-4-yl)-1,4-azaphosphinane 4-oxide] | 55 | 74 | 92 | 100 | 92 | 80 | 81
